Article PMC4154495 (Molecular cancer therapeutics, 2014)

Biological target: T1, ETV1 (ETS variant 1) (Homo sapiens, UniProt P50549)
T1 sequence (P50549 1-477): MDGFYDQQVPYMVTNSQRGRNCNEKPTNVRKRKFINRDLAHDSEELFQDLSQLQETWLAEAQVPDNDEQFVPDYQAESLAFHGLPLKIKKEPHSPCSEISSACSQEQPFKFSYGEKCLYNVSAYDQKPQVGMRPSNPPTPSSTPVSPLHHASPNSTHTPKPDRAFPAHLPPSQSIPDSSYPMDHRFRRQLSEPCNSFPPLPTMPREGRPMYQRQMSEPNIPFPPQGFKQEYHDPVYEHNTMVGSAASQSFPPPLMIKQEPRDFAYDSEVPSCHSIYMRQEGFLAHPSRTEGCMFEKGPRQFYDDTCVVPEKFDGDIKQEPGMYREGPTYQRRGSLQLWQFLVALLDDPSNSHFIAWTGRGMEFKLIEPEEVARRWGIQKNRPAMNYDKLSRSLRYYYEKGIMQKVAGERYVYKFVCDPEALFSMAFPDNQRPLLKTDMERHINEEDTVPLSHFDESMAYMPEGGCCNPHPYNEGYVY
Test: SPR
Format: binding

For `COc1ccc(Nc2nc(N)nc(CN3CCCCC3)n2)cc1` [compound 1, BRD32048], which Kd is on record?
The Kd was 17.1 µM.
